# Measured values as given in patent US20250367106A1, “Topical Formulation for Improving Skin Quality and Inducing the Release of Oxytocin” (OX Technology IP LLC, priority 2024, published 2025).
# Test: ratings of trustworthiness and attractiveness of unfamiliar faces (FIG. 3)
# Type: in vivo, human
# Conditions: people under the influence of the hormone compared to control groups who were not
# From the text: As has been explained, the first set 14 of active ingredients create a reaction in the body that induces the production of hormones and/or pheromones. Hormones, such as oxytocin and its kind promote improved social behavior and enhances positive social perceptions of others. […] Oxytocin also masks negative personality perceptions that masculinized faces tend to elicit.
compound,measurement,value
CC[C@H](C)[C@@H]1NC(=O)[C@H](Cc2ccc(O)cc2)NC(=O)[C@@H](N)CSSC[C@@H](C(=O)N2CCC[C@H]2C(=O)N[C@@H](CC(C)C)C(=O)NCC(N)=O)NC(=O)[C@H](CC(N)=O)NC(=O)[C@H](CCC(N)=O)NC1=O [oxytocin],"ratings of ""trustworthiness"" and ""attractiveness"" of unfamiliar faces",higher ratings
